Data published in patent US20260167615A1, “COMPOUNDS AND COMPOSITIONS AS GPR52 MODULATORS” (Neurocrine Biosciences, Inc., priority 2022, published 2026).

Target: recombinant human GPR52 (Homo sapiens, UniProt Q9Y2T5)
Assay: HTRF cAMP assay, GPR52 activity (Example A)
Assay type: cell-based
Settings: for EC50: average EC50 (n=1 to 15), Flp-In-CHO cells stably expressing recombinant human GPR52, cAMP HTRF, read-out: EC50 (N=); for Emax: maximum cAMP at 10 μM or 31.6 μM test compound, as percentage of Emax of control compound 4-(3-(3-fluoro-5-(trifluoromethyl)benzyl)-5-methyl-4,5-dihydro-1H-1,2,4-triazol-1-yl)-2-methylbenzamide
Experimental: Compounds of Formula I were assessed for their ability to modulate GPR52 activity. HTRF CAMP assays were performed using a commercially available assay kit (CAMP Gs HiRange HTRF®, CisBio). Controls and compounds were solubilized in DMSO and 62.5 nanoliters of the diluted compounds were transferred into 384-well NBS assay plates via acoustic or precision low-volume dispensing. Compounds were further diluted to 1× with the addition of 20,000 cells per well. Flp-In™—CHO cells that stably express recombinant human GPR52 were used in the assay.
Cells were harvested with cell stripper and resuspended in stimulation buffer. After thirty minutes incubation at room temperature, detection reagents were added to each well. Plates were then incubated for an additional 30 minutes at room temperature. CAMP produced by the cells during the first incubation period competes with d2-labeled CAMP for binding to an anti-cAMP monoclonal antibody labeled with europium cryptate. The measured signal was inversely proportional to the concentration of cAMP produced by the cells and this signal was quantified using a PHERAstar® multi-mode plate reader.
Dose-response curves were generated from the HTRF counts that have been transformed based on a CAMP referenced curve, and then normalized to the positive control. EC50 values were obtained using a nonlinear regression curve-fitting program. […] The Emax (Table 13) is the maximum amount of cAMP (nM) produced by incubation of the cells with 10 μM or 31.6 μM of a test compound. The compound is defined by the top plateau of the sigmoid curve fit. The curve is then normalized to a control compound, in this case 4-(3-(3-fluoro-5-(trifluoromethyl)benzyl)-5-methyl-4,5-dihydro-1H-1,2,4-triazol-1-yl)-2-methylbenzamide (Tokumaru, K., et al., “Design, synthesis, and pharmacological evaluation of 4-azolyl-benzamide derivatives as novel GPR52 agonists”, Bioorganic & Medicinal Chemistry, Volume 25, Issue 12, June 2017, pages 3098-3115), and expressed as a percentage of the Emax of that control compound.

Sequence of recombinant human GPR52 (Q9Y2T5 whole entry): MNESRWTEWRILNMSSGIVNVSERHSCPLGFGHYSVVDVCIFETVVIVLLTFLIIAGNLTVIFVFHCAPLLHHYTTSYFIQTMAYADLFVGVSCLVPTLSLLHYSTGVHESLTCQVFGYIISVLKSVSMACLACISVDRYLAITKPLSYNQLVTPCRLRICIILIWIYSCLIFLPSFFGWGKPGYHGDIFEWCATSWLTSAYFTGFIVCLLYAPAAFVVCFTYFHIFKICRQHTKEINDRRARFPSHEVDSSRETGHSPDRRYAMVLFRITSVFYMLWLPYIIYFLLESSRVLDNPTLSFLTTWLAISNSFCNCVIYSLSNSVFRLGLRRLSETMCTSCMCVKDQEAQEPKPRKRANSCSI

| Compound | EC50 [nM] | Emax [%] |
| --- | --- | --- |
| CCc1cc(-c2cc(Oc3cnc4c(C)nn(C)c4c3)ccn2)cc(F)c1C(N)=O [Example 34, 4-(4-((1,3-dimethyl-1H-pyrazolo[4,3-b]pyridin-6-yl)oxy)pyridin-2-yl)-2-ethyl-6-fluorobenzamide] | 1000 to 2000 | 77 |
| CNc1cc(-c2cc(Oc3ccc4c(C)nn(C)c4c3)ccn2)ccc1C(N)=O [Example 35, 4-(4-((1,3-dimethyl-1H-indazol-6-yl)oxy)pyridin-2-yl)-2-(methylamino)benzamide] | 101 to 1000 | 85 |
| Cc1cc(-c2cc(Oc3ccc4c(C(F)(F)F)nn(C)c4c3)ccn2)ccc1C(N)=O [Example 37, 2-methyl-4-(4-((1-methyl-3-(trifluoromethyl)-1H-indazol-6-yl)oxy)pyridin-2-yl)benzamide] | 101 to 1000 | 81 |
| CCc1cc(-c2cc(Oc3cc(F)c4c(C)nn(C)c4c3)ccn2)ccc1C(N)=O [Example 38, 2-ethyl-4-(4-((4-fluoro-1,3-dimethyl-1H-indazol-6-yl)oxy)pyridin-2-yl)benzamide] | 25 to 100 | 104 |
| Cc1cc(-c2cc(Oc3cc(F)c4cnn(C)c4c3)ccn2)ccc1C(N)=O [Example 39, 4-(4-((4-fluoro-1-methyl-1H-indazol-6-yl)oxy)pyridin-2-yl)-2-methylbenzamide] | 25 to 100 | 104 |
| Cc1nn(C)c2cc(Oc3ccnc(-c4ccc(C(N)=O)c(Cl)c4)c3)ccc12 [Example 40, 2-chloro-4-(4-((1,3-dimethyl-1H-indazol-6-yl)oxy)pyridin-2-yl)benzamide] | 25 to 100 | 92 |
| Cc1nn(C)c2cc(Oc3ccnc(-c4ccc(C(N)=O)c(C(F)(F)F)c4)c3)ccc12 [Example 42, 4-(4-((1,3-dimethyl-1H-indazol-6-yl)oxy)pyridin-2-yl)-2-(trifluoromethyl)benzamide] | 101 to 1000 | 83 |
| CCn1ncc2ccc(Oc3ccnc(-c4ccc(C(N)=O)c(C)c4)c3)cc21 [Example 44, 4-(4-((1-ethyl-1H-indazol-6-yl)oxy)pyridin-2-yl)-2-methylbenzamide] | 101 to 1000 | 91 |
| CCc1cc(-c2cc(Oc3ccc4c(C#N)nn(C)c4c3)ccn2)ccc1C(N)=O [Example 48, 4-(4-((3-cyano-1-methyl-1H-indazol-6-yl)oxy)pyridin-2-yl)-2-ethylbenzamide] | 101 to 1000 | 118 |
| Cc1cc(-c2cc(Oc3ccc4c(N)nn(C)c4c3)ccn2)ccc1C(N)=O [Example 49, 4-(4-((3-amino-1-methyl-1H-indazol-6-yl)oxy)pyridin-2-yl)-2-methylbenzamide] | 101 to 1000 | 53 |
| Cc1cnc(-c2ccc(C(N)=O)c(C)c2)cc1Oc1ccc2cnn(C)c2c1 [Example 50, 2-methyl-4-(5-methyl-4-((1-methyl-1H-indazol-6-yl)oxy)pyridin-2-yl)benzamide] | 101 to 1000 | 78 |
| Cc1cc(-c2cc(Oc3cnc4c(c3)c(C)nn4C)ccn2)ccc1C(N)=O [Example 54, 4-(4-((1,3-dimethyl-1H-pyrazolo[3,4-b]pyridin-5-yl)oxy)pyridin-2-yl)-2-methylbenzamide] | 101 to 1000 | 110 |
| CCc1cc(-c2cc(Oc3cnc4c(c3)c(C)nn4C)ccn2)ccc1C(N)=O [Example 55, 4-(4-((1,3-dimethyl-1H-pyrazolo[3,4-b]pyridin-5-yl)oxy)pyridin-2-yl)-2-ethylbenzamide] | 25 to 100 | 108 |
| CCc1cc(-c2cc(Oc3cnc4c(c3)c(C(F)(F)F)nn4C)ccn2)ccc1C(N)=O [Example 56, 2-ethyl-4-(4-((1-methyl-3-(trifluoromethyl)-1H-pyrazolo[3,4-b]pyridin-5-yl)oxy)pyridin-2-yl)benzamide] | 25 to 100 | 100 |
| CCc1cc(-c2cc(Oc3ccc4c(c3)c(C)nn4C)ccn2)ccc1C(N)=O [Example 57, 4-(4-((1,3-dimethyl-1H-indazol-5-yl)oxy)pyridin-2-yl)-2-ethylbenzamide] | 25 to 100 | 104 |
| Cc1cc(-c2cc(Oc3ccc4c(c3)c(C)nn4C)ccn2)ccc1C(N)=O [Example 58, 4-(4-((1,3-dimethyl-1H-indazol-5-yl)oxy)pyridin-2-yl)-2-methylbenzamide] | 25 to 100 | 108 |
| CCc1cc(-c2cc(Oc3cnc4c(C)nn(C)c4c3)ccn2)ccc1C(=O)NC [Example 60, 4-(4-((1,3-dimethyl-1H-pyrazolo[4,3-b]pyridin-6-yl)oxy)pyridin-2-yl)-2-ethyl-N-methylbenzamide] | 101 to 1000 | 102 |
| CCc1cc(-c2cc(Oc3cnc4c(C(F)(F)F)nn(C)c4c3)ccn2)ccc1C(=O)NC [Example 61, 2-ethyl-N-methyl-4-(4-((1-methyl-3-(trifluoromethyl)-1H-pyrazolo[4,3-b]pyridin-6-yl)oxy)pyridin-2-yl)benzamide] | 101 to 1000 | 81 |
| CNC(=O)c1ccc(-c2cc(Oc3ccc4cnn(C)c4c3)ccn2)cc1C [Example 62, N,2-dimethyl-4-(4-((1-methyl-1H-indazol-6-yl)oxy)pyridin-2-yl)benzamide] | 101 to 1000 | 84 |
| CCNC(=O)c1ccc(-c2cc(Oc3ccc4cnn(C)c4c3)ccn2)cc1C [Example 63, N-ethyl-2-methyl-4-(4-((1-methyl-1H-indazol-6-yl)oxy)pyridin-2-yl)benzamide] | 101 to 1000 | 70 |
| CCc1cc(-c2cc(Oc3ccc4c(C(F)(F)F)nn(C)c4c3)ccn2)ccc1C(=O)NC [Example 64, 2-ethyl-N-methyl-4-(4-((1-methyl-3-(trifluoromethyl)-1H-indazol-6-yl)oxy)pyridin-2-yl)benzamide] | 101 to 1000 | 81 |
| CCc1cc(-c2cccc(Oc3cnc4c(C)nn(C)c4c3)c2)ccc1C(=O)NC [Example 66, 3′-((1,3-dimethyl-1H-pyrazolo[4,3-b]pyridin-6-yl)oxy)-3-ethyl-N-methyl-[1,1′-biphenyl]-4-carboxamide] | 101 to 1000 | 87 |

Continued, values first:

| EC50 [nM] | Emax [%] | Compound |
| --- | --- | --- |
| < 25 | 105 | CCc1cc(-c2cc(Oc3cc(F)c4cnn(C)c4c3)ccn2)ccc1C(N)=O [Example 36, 2-ethyl-4-(4-((4-fluoro-1-methyl-1H-indazol-6-yl)oxy)pyridin-2-yl)benzamide] |
| 101 to 1000 | 125 | CCc1cc(-c2cc(Oc3ccc4cn[nH]c4c3)ccn2)ccc1C(N)=O [Example 41, 4-(4-((1H-indazol-6-yl)oxy)pyridin-2-yl)-2-ethylbenzamide] |
| 101 to 1000 | 103 | Cc1cc(-c2cc(Oc3ccc4cnn(C)c4c3)ccn2)ccc1C(N)=O [Example 43, 2-methyl-4-(4-((1-methyl-1H-indazol-6-yl)oxy)pyridin-2-yl)benzamide] |
| 101 to 1000 | 88 | Cn1ncc2ccc(Oc3ccnc(-c4ccc(C(N)=O)c(Cl)c4)c3)cc21 [Example 45, 2-chloro-4-(4-((1-methyl-1H-indazol-6-yl)oxy)pyridin-2-yl)benzamide] |
| 101 to 1000 | 63 | CCc1cc(-c2cc(Oc3cc(C)c4cnn(C)c4c3)ccn2)ccc1C(N)=O [Example 46, 4-(4-((1,4-dimethyl-1H-indazol-6-yl)oxy)pyridin-2-yl)-2-ethylbenzamide] |
| 101 to 1000 | 88 | Cn1ncc2ccc(Oc3ccnc(-c4ccc(C(N)=O)c(C(F)(F)F)c4)c3)cc21 [Example 47, 4-(4-((1-methyl-1H-indazol-6-yl)oxy)pyridin-2-yl)-2-(trifluoromethyl)benzamide] |
| 1000 to 2000 | 96 | Cc1cc(-c2cccc(Oc3ccc4cnn(C)c4c3)c2)ccc1C(N)=O [Example 51, 3-methyl-3′-((1-methyl-1H-indazol-6-yl)oxy)-[1,1′-biphenyl]-4-carboxamide] |
| 1000 to 2000 | 86 | CCc1cc(-c2cccc(Oc3ccc4cnn(C)c4c3)c2)ccc1C(N)=O [Example 52, 3-ethyl-3′-((1-methyl-1H-indazol-6-yl)oxy)-[1,1′-biphenyl]-4-carboxamide] |
| 25 to 100 | 105 | CCc1cc(-c2cc(Oc3ccc4c(C)nn(C)c4c3)ccn2)ccc1C(N)=O [Example 53, 4-(4-((1,3-dimethyl-1H-indazol-6-yl)oxy)pyridin-2-yl)-2-ethylbenzamide] |
| 101 to 1000 | 95 | CCc1cc(-c2cc(Oc3ccc4cnn(C)c4c3)ccn2)ccc1C(=O)NC [Example 59, 2-ethyl-N-methyl-4-(4-((1-methyl-1H-indazol-6-yl)oxy)pyridin-2-yl)benzamide] |
| 1000 to 2000 | 83 | CCc1cc(-c2cccc(Oc3ccc4cnn(C)c4c3)c2)ccc1C(=O)NC [Example 65, 3-ethyl-N-methyl-3′-((1-methyl-1H-indazol-6-yl)oxy)-[1,1′-biphenyl]-4-carboxamide] |
